Like-named read-outs stand apart in the source and are kept apart here.
What was measured:
[1] = target: T1, human norepinephrine transporters (Homo sapiens, UniProt P23975); experiment: Norepinephrine Transporter Binding Assay ([3H]-nisoxetine displacement, hNET cell membranes); conditions: 2.7 nM [3H]-nisoxetine, 1 hr at 4° C., read-out: NE reuptake binding Ki
T1 construct: the text also calls them 'HEK-hNET cells'); membrane homogenates
Method: MDCK cells that stably express human norepinephrine transporters (HEK-hNET cells) were supplied by Receptor Biology, Inc. Pellets were resuspended by homogenization in buffer consisting of 50 mM Tris (pH 7.4 at 25° C.), 120 mM NaCl and 5 mM KCl. Membrane homogenates (200 μl/well, 8 ug protein) were incubated with 2.7 nM [^3H]-nisoxetine (specific activity=80 Ci/mMol) and increasing concentrations of test compounds for 1 hr at 4° C. in a total volume of 250 μl. The assay buffer consisted of 50 mM Tris (pH 7.4 at 25° C.), 120 mM NaCl and 5 mM KCl (pH 7.4 with conc. HCl). Plates were incubated for 1 hr at 4° C., then filtered through 0.5% PEI treated Whatman GF/B filters using a Brandel cell harvester. Filters were washed three times with 3 mL of ice-cold tris wash buffer. Non-specific binding was defined with 10 μM desipramine. Amount of radioligand bound in the presence and absence of competitor was analyzed by plotting (−)log drug concentration versus the amount of radioligand specifically bound. The midpoint of the displacement curve (IC50, nM), signifies the potency. Ki values were calculated using the method of Cheng and Prusoff (1973).

[2] = target: T2, human serotonin transporters (Homo sapiens, UniProt P31645); experiment: Serotonin Transporter Binding Assay ([3H]-citalopram displacement, HEK-hSERT cell membranes); conditions: 1 nM [3H]-citalopram, 1 hr at 25° C.
T2 construct: expressed in transfected cells; membrane homogenates
T2 sequence (P31645 whole entry): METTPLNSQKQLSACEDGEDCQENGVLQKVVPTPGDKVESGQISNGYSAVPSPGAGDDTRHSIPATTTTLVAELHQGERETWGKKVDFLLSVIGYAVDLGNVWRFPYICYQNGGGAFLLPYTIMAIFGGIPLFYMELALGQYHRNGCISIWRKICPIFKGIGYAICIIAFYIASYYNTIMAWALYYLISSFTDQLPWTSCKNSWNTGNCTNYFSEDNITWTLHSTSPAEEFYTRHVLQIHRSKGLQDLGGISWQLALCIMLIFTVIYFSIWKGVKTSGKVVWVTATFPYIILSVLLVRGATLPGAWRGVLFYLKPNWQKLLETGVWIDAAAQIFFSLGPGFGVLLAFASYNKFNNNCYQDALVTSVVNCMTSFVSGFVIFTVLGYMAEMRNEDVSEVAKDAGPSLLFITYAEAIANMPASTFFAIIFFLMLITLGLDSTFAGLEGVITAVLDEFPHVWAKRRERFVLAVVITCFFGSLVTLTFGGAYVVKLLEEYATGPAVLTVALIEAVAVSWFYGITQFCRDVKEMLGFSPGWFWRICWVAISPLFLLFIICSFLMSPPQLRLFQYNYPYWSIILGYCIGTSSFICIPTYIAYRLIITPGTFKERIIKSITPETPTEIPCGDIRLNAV
Method: HEK-293 cells that stably express human serotonin transporters (HEK-hSERT cells) were grown at 37° C. in 5% CO2 as a monolayer in medium consisting of EMEM supplemented with 10% fetal bovine serum and G418 sulfate (500 μg/mL). […] Cells were transferred from plates to polypropylene tubes (16×100 mm), centrifuged at 1,200×g for 5 min and were frozen at −80° C. until assay. Following centrifugation, pellets were resuspended by homogenization in buffer consisting of 50 mM Tris (pH 7.7 at 25° C.), 120 mM NaCl and 5 mM KCl and then centrifuged at 32,000×g for 10 min. Following centrifugation, supernatants were discarded and pellets were resuspended in buffer consisting of 50 mM Tris (pH 7.4 at 25° C.), 150 mM NaCl and 5 mM KCl. Membrane homogenates (200 μl/plate) were incubated with 1 nM [^3H]-citalopram (specific activity=85 Ci/mMol) and increasing concentrations of test compounds for 1 hr at 25° C. in a total volume of 250 μl. The assay buffer consisted of 50 mM Tris (pH 7.4 at 25° C.), 120 mM NaCl and 5 mM KCl (pH 7.4 with conc. HCl). Plates were incubated for 1 hr at 25° C., then filtered through 0.5% PEI treated Whatman GF/B filters using a Brandel cell harvester. Filters were washed three times with 3 mL of ice-cold tris wash buffer. Non-specific binding was defined with 10 μM fluoxetine. Amount of radioligand bound in the presence and absence of competitor was analyzed by plotting (−)log drug concentration versus the amount of radioligand specifically bound. The midpoint of the displacement curve (IC50, nM), signifies the potency.

T1 sequence (P23975 whole entry): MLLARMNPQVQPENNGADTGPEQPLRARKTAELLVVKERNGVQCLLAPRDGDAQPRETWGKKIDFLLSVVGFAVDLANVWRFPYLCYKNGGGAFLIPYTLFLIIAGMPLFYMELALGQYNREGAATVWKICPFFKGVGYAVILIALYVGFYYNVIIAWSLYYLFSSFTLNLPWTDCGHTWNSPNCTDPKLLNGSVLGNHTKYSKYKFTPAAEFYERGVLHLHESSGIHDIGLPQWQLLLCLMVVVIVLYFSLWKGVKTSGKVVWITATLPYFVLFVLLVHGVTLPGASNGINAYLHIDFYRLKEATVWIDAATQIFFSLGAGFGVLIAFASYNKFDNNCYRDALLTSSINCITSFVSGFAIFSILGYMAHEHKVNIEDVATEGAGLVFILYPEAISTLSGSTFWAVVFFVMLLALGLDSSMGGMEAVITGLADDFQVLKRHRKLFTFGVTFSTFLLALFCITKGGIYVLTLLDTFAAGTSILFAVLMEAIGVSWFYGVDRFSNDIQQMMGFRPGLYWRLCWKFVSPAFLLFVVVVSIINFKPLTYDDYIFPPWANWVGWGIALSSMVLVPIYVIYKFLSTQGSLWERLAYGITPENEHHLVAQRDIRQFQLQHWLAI

Compound | Ki [1] [µM] | Ki ([2]; 5-HT reuptake binding Ki) [µM] | Ki ([2]; read-out: 5-HT reuptake binding Ki) [µM]
CCNC[C@H]1CCC[C@@H]1c1c[nH]c2ccc(C#N)cc12 (relative stereo) [Example 27, Trans-3-(2-ethylaminomethyl-cyclopentyl)-1H-indole-5-carbonitrile] | > 1 | 0.01 to 0.1 | 
CN(C)C[C@H]1CCC[C@@H]1c1ccc2[nH]cc(C#N)c2c1 (relative stereo) [Example 34, Trans-5-(2-dimethylaminomethyl-cyclopentyl)-1H-indole-3-carbonitrile] | > 1 |  | 0.001 to 0.01
CN(C)C[C@H]1CCC[C@@H]1c1c[nH]c2ccc(C#N)cc12 (single isomer, unassigned; enantiomerb) [Example 45] | > 1 | < 0.001 | 

— patent publication US7105516B2, “Compounds for the treatment of premature ejaculation” (Bristol-Myers Squibb Company, priority 2002, dated 2006)
